Measured values as given in patent publication US9393236B2, “Use of 4-cyclopropylmethoxy-N-(3,5-dichloro-1-oxido-4-pyridin-4-yl)-5-(methoxy)pyridine-2-carboxamide in the treatment of cranial traumas” (SANOFI, priority 2007, dated 2016).

Tests used:
ferret = assay: Evaluation of the emetic effects in the ferret; assay type: in vivo
Experimental: The emetic capacity of 4-cyclopropylmethoxy-N-(3,5-dichloro-1-oxidopyridin-4-yl)-5-(methoxy)pyridine-2-carboxamide was evaluated in the ferret. Two groups of ferrets were used, the first receiving the carrier (PEG200) and the second receiving 4-cyclopropyl methoxy-N-(3,5-dichloro-1-oxidopyridin-4-yl)-5-(methoxy)pyridine-2-carboxamide in solution in the carrier (PEG 200), by oral gavage. The animals were observed continually for the 2 hours following the administration, and then every hour up to 6 hours after the administration. The clinical signs (in particular retching and vomiting) were noted.
The emetic capacity of (R)-(−)-rolipram was evaluated in the ferrets. Two groups of ferrets were used, the first being given the carrier (PEG200) and the second being given the (((4R)-4-[3-(cyclopentyloxy)-4-methoxyphenyl]pyrrolidine-2-one)) in solution in the carrier (PEG 200), by oral gavage, at doses of 0.05 mg/kg and of 0.1 mg/kg. The animals were observed continually for the 2 hours following administration, and then once an hour up to 6 hours after the administration. The clinical signs were noted.

[1] = test system: rats with parietal cranial trauma; assay: CFR (Conditioned Freezing Response) test after a parietal cranial trauma; assay type: in vivo, rat (Sprague-Dawley); details: rat; 0.05 mg/kg i.v. 4 h after surgery (D0), then 0.1 mg/kg/day per os twice a day D1-D21; CFR measured D23/D24; p<0.001 vs traumatized animal given the carrier
Experimental: After general anaesthesia, rats (Sprague-Dawley, male, 150-200 g, Charles River) are placed in a stereotaxis frame. A craniotomy is performed at the level of the parietal cortex (AP: 3.5 mm; LAT: 7 mm and 3.5 mm below the cranial roof). A catheter connected to an HPLC pump is placed in contact with the dura mater and a pressure of 0.073 Kpsi is exerted.
The animals are treated intravenously 4 h after the surgery (D0) by administering a solution of 4-cyclopropylmethoxy-N-(3,5-dichloro-1-oxidopyridin-4-yl)-5-(methoxy)pyridine-2-carboxamide in the carrier (PEG200/physiological saline (NaCl 0.9%)), at the dose of 0.05 mg/kg.
Starting from D1 and up to D21 post-surgery, the animals are treated with a solution containing 4-cyclopropylmethoxy-N-(3,5-dichloro-1-oxidopyridin-4-yl)-5-(methoxy)pyridine-2-carboxamide in the carrier (methylcellulose (MC) (0.6%)+tween-80 (0.5%) in water) per os, twice a day, at the total daily dose of 0.1 mg/kg.
The deficiency in the CFR was measured at days D23 and D24 post-surgery.
At D23, the animal is placed in a box, where it receives an electric shock of 0.6 mA for 1.5 s.
At D24, the animal is again placed in the same box and the duration of immobility is measured for 3 minutes.

[2] = 0.1 mg/kg by oral gavage in PEG200, observed up to 6 hours

SMILES: COc1cnc(C(=O)Nc2c(Cl)c[n+]([O-])cc2Cl)cc1OCC1CC1 [4-Cyclopropylmethoxy-N-(3,5-dichloro-1-oxidopyridin-4-yl)-5-(methoxy)pyridine-2-carboxamide]
- emetic effects (retching and vomiting) (ferret; [2]): induces no retching or vomiting
- inhibition of the deficiency (immobility time in CFR) induced by a cranial trauma [1]: 100%

SMILES: COc1ccc([C@@H]2CNC(=O)C2)cc1OC1CCCC1 [(R)-(−)-rolipram, (4R)-4-[3-(cyclopentyloxy)-4-methoxyphenyl]pyrrolidine-2-one]
- emetic effects (retching and vomiting) (ferret; 0.05 mg/kg by oral gavage in PEG200, observed up to 6 hours): induces vomiting
- emetic effects (retching and vomiting) (ferret; [2]): induces vomiting
